Experimental findings from US20260125382A1, “COMPOUNDS FOR INHIBITING OR DEGRADING CDK2 AND/OR CDK9 AND MEDICINAL USE THEREOF” (KOREA RESEARCH INSTITUTE OF CHEMICAL TECHNOLOGY, priority 2022, published 2026) are described below.

The target of one assay is T1, CDK2 (Homo sapiens, UniProt P24941).
T1 construct: endogenous in cells; host or cells: MDA-MB-231
Kind of assay: CDK protein degradation activity (Western blotting), CDK2. The settings on record: MDA-MB-231 cells, 16 hours, Western blot. It counts as cell-based. The method, boiled down: (§1)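 Breast cancer line MDA-MB-231, 16 h compound treatment (100 nM–10 μM final, three doses). Immunoblot quantification of CDK2/CDK9 versus tubulin, normalized to DMSO control.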
Background: Immunoblotting shows a protein as a band on a membrane.

The next assay concerns the target T2, CDK9 (Homo sapiens, UniProt P50750).
T2 construct: endogenous in cells; host or cells: MDA-MB-231
Kind of assay: CDK protein degradation activity (Western blotting), CDK9. In kind it is cell-based. The settings on record: MDA-MB-231 cells, 16 hours, Western blot. The essentials:
as §1

T2 sequence (P50750 whole entry): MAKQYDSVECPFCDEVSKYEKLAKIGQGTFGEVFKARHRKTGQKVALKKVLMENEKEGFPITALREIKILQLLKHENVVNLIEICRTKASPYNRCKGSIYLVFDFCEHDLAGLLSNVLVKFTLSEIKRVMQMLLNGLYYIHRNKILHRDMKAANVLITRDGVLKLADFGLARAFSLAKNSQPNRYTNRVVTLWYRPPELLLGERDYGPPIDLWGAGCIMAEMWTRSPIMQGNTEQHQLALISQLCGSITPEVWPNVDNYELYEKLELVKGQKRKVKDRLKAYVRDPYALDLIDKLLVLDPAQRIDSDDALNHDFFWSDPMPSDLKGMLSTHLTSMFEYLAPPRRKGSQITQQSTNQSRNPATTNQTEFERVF

For `O=C1CC[C@H](N2C(=O)c3ccc(CCCCN4CCC(N5CCN(c6ccc(Nc7ncnc8c7ncn8C7CC(NC(=O)Cc8ccccc8)C7)cc6)CC5)CC4)cc3C2=O)C(=O)N1` (stereo partly drawn) [Compound 408, N-((1s,3s)-3-(6-((4-(4-(1-(4-(2-(2,6-dioxopiperidin-3-yl)-1,3-dioxoisoindolin-5-yl)butyl)piperidin-4-yl)piperazin-1-yl)phenyl)amino)-9H-purin-9-yl)cyclobutyl)-2-phenylacetamide], on CDK2, the “Enzyme degradation CDK2 (% remaining) @ 0.1 μM” value was 40%, the “Enzyme degradation CDK2 (% remaining) @ 1 μM” value was 30% and the “Enzyme degradation CDK2 (% remaining) @ 10 μM” value was 30%. For the same molecule, at CDK9, the “Enzyme degradation CDK9 (% remaining) @ 0.1 μM” value is 20%, the “Enzyme degradation CDK9 (% remaining) @ 1 μM” value turned out to be 10% and the “Enzyme degradation CDK9 (% remaining) @ 10 μM” value is listed as 10%.
For the molecule `O=C1CC[C@H](N2C(=O)c3cc(F)c(N4CCC(C(=O)N5CCC(CN6CCN(c7ccc(Nc8ncnc9c8ncn9[C@H]8C[C@@H](NC(=O)c9cccc(C(F)(F)F)n9)C8)cc7)CC6)CC5)CC4)cc3C2=O)C(=O)N1` [Compound 471, N-((1s,3s)-3-(6-((4-(4-((1-(1-(2-(2,6-dioxopiperidin-3-yl)-6-fluoro-1,3-dioxoisoindolin-5-yl)piperidin-4-carbonyl)piperidin-4-yl)methyl)piperazin-1-yl)phenyl)amino)-9H-purin-9-yl)cyclobutyl)-6-(trifluoromethyl)picolinamide], at CDK2, the “Enzyme degradation CDK2 (% remaining) @ 0.1 μM” value came out at 50%, the “Enzyme degradation CDK2 (% remaining) @ 1 μM” value amounted to 40% and the “Enzyme degradation CDK2 (% remaining) @ 10 μM” value was found to be 40%. On CDK9, the “Enzyme degradation CDK9 (% remaining) @ 0.1 μM” value is listed as 0/0/0%, the “Enzyme degradation CDK9 (% remaining) @ 1 μM” value was 0/0/0% and the “Enzyme degradation CDK9 (% remaining) @ 10 μM” value is 0/0/0%.
Consider `Cc1cccc(C(=O)NC2CC(n3cnc4c(NCc5cccc(N6CCN(CC7CCN(C(=O)CNc8ccc9c(c8)C(=O)N([C@H]8CCC(=O)NC8=O)C9=O)CC7)CC6)c5)ncnc43)C2)n1` (stereo partly drawn) [Compound 135, N-((1s,3s)-3-(6-((3-(4-((1-((2-(2,6-dioxopiperidin-3-yl)-1,3-dioxoisoindolin-5-yl)glycyl)piperidin-4-yl)methyl)piperazin-1-yl)benzyl)amino)-9H-purin-9-yl)cyclobutyl)-6-methylpicolinamide], for which, on CDK2, the “Enzyme degradation CDK2 (% remaining) @ 0.1 μM” value is 70%, the “Enzyme degradation CDK2 (% remaining) @ 1 μM” value turned out to be 60% and the “Enzyme degradation CDK2 (% remaining) @ 10 μM” value was 40%. At CDK9, the “Enzyme degradation CDK9 (% remaining) @ 0.1 μM” value was 0/0/0%, the “Enzyme degradation CDK9 (% remaining) @ 1 μM” value is recorded as 0/0/0% and the “Enzyme degradation CDK9 (% remaining) @ 10 μM” value is reported as 0/0/0%.
As to `O=C1CC[C@H](N2C(=O)c3ccc(NCC(=O)N4CCC(CN5CCN(c6ccc(Nc7ncnc8c7ncn8C7CC(NC(=O)c8c(Cl)cccc8Cl)C7)cc6)CC5)CC4)cc3C2=O)C(=O)N1` (stereo partly drawn) [Compound 164, 2,6-dichloro-N-((1s,3s)-3-(6-((4-(4-((1-((2-(2,6-dioxopiperidin-3-yl)-1,3-dioxoisoindolin-5-yl)glycyl)piperidin-4-yl)methyl)piperazin-1-yl)phenyl)amino)-9H-purin-9-yl)cyclobutyl)benzamide], at CDK2, the “Enzyme degradation CDK2 (% remaining) @ 0.1 μM” value is on record as 30/30/30%, the “Enzyme degradation CDK2 (% remaining) @ 1 μM” value is recorded as 30/30/30% and the “Enzyme degradation CDK2 (% remaining) @ 10 μM” value is recorded as 30/30/30%. On CDK9, the “Enzyme degradation CDK9 (% remaining) @ 0.1 μM” value was 0/0/0%, the “Enzyme degradation CDK9 (% remaining) @ 1 μM” value is 0/0/0% and the “Enzyme degradation CDK9 (% remaining) @ 10 μM” value was 0/0/0%.
